# Assay results published in patent US20240269139A1, “COMPOUNDS FOR TARGETED PROTEIN DEGRADATION OF KINASES” (DANA-FARBER CANCER INSTITUTE, INC., priority 2020, published 2024).
# Like-named read-outs stand apart in the source and are kept apart here.
# How the values were obtained:
# Format in all cases: cell-based
# [1] = target: protein kinases (human kinome) (Homo sapiens, UniProt Q9BZX2); details: protein UCK2 (Q9BZX2-1); experiment wp160, 8 hr; down
# [2] = target: T1, protein kinases (human kinome) (Homo sapiens, UniProt Q9UQ88); details: experiment wp105
# T1 sequence (Q9UQ88 1-783): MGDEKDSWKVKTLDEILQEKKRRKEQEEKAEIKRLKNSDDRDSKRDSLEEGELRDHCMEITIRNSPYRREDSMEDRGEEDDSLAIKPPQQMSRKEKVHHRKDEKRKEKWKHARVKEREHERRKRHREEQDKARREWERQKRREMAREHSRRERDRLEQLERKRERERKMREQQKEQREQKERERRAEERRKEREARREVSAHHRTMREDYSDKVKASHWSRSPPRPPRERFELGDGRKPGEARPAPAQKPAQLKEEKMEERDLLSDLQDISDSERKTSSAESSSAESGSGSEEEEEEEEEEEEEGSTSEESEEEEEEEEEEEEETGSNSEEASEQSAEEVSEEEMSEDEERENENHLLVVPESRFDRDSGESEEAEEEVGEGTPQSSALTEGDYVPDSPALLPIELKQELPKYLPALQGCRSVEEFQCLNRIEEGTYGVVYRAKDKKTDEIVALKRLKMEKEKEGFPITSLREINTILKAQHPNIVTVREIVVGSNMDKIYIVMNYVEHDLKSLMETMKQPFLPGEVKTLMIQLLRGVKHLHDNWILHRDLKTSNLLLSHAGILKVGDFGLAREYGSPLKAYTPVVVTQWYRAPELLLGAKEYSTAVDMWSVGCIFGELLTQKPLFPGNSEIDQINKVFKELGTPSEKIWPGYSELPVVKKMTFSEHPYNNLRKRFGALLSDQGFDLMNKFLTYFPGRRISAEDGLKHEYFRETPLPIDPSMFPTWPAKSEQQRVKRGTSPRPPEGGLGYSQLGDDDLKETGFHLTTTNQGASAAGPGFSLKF
# [3] = target: protein kinases (human kinome) (Homo sapiens, UniProt Q16832)
# protein kinases (human kinome) (Homo sapiens, UniProt Q16832), sequence (Q16832 22-855): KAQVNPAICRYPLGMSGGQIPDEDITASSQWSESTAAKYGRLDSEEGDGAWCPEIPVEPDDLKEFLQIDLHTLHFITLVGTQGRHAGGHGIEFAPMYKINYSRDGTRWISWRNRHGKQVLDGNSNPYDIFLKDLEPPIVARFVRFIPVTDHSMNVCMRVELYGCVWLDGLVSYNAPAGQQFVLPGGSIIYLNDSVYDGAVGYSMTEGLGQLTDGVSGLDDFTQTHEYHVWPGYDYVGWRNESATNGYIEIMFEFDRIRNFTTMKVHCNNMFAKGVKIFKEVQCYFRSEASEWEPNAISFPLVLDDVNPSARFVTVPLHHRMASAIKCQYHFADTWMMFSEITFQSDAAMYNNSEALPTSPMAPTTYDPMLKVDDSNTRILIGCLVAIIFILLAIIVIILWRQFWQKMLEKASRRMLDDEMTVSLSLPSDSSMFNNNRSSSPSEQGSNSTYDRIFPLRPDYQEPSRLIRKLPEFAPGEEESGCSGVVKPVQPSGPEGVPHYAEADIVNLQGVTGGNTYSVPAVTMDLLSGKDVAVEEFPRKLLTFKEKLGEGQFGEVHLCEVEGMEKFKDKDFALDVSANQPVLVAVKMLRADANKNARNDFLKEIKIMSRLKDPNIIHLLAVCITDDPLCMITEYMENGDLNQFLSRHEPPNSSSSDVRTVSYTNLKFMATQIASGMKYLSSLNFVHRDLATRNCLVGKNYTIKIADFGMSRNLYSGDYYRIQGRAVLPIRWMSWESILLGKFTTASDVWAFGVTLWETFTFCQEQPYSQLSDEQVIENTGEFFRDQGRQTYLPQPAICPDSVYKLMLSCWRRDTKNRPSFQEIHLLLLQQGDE
# [4] = target: protein kinases (human kinome) (Homo sapiens, UniProt Q15759); details: for logFC MAPK11 (Q15759): direction of change down; for logFC: MAPK11 (Q15759)
# protein kinases (human kinome) (Homo sapiens, UniProt Q15759), sequence (Q15759 whole entry): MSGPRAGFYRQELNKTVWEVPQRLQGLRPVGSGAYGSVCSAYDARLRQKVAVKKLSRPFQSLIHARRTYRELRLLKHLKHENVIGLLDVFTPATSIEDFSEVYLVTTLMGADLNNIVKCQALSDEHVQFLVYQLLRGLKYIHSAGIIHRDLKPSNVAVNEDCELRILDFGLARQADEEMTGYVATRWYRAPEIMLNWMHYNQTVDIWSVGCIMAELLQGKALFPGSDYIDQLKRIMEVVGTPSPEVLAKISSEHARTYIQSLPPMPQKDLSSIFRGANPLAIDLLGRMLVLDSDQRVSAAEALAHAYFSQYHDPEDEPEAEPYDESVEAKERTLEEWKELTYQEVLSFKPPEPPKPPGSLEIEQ
# [5] = target: protein kinases (human kinome) (Homo sapiens, UniProt Q16760); details: protein DGKD (Q16760-1); experiment wp045; down
# protein kinases (human kinome) (Homo sapiens, UniProt Q16760), sequence (Q16760 whole entry): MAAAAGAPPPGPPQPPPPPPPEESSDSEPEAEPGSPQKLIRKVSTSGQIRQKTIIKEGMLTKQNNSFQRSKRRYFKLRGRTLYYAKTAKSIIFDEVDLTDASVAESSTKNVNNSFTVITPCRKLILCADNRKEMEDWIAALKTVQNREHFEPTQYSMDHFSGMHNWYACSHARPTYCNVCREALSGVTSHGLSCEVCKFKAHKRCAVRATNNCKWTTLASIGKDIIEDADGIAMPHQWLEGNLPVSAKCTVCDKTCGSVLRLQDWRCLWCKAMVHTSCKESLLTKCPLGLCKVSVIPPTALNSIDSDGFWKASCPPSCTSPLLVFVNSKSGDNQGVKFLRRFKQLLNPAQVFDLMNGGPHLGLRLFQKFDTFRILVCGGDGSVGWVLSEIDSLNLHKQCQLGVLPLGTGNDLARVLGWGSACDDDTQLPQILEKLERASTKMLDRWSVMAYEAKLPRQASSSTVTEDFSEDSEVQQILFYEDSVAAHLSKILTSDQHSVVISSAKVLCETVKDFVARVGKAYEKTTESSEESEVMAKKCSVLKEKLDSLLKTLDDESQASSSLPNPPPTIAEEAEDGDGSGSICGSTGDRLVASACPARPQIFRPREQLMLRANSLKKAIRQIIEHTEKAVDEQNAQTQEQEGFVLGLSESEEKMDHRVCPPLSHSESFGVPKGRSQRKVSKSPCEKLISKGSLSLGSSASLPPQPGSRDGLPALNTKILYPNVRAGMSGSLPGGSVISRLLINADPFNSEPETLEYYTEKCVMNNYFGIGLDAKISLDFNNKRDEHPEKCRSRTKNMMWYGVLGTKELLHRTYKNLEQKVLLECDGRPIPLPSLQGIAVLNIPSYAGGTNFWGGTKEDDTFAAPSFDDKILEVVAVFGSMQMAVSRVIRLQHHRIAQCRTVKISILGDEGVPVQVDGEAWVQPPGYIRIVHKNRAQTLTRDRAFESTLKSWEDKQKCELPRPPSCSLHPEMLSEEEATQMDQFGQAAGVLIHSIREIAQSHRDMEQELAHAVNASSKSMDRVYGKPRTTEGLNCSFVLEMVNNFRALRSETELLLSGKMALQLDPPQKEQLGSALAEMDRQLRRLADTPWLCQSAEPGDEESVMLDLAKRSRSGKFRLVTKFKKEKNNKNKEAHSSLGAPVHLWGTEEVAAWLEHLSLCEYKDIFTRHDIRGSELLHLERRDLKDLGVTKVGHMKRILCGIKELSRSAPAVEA
# [6] = target: protein kinases (human kinome) (Homo sapiens, UniProt P31749); details: for logFC: AKT1 (P31749)
# protein kinases (human kinome) (Homo sapiens, UniProt P31749), sequence (P31749 whole entry): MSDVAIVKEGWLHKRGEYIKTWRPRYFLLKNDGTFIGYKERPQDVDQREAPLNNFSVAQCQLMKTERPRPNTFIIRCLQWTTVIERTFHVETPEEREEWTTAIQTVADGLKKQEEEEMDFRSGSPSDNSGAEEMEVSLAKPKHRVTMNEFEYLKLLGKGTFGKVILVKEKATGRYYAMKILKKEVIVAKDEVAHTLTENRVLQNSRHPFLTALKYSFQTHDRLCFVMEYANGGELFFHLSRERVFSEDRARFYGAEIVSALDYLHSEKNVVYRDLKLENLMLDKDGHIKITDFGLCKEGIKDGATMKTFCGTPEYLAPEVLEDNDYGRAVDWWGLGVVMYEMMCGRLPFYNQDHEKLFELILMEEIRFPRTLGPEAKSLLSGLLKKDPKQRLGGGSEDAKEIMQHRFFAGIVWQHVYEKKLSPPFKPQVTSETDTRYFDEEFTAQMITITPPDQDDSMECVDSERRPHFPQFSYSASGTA
# [7] = target: protein kinases (human kinome) (Homo sapiens, UniProt Q8IW41); details: experiment wp080
# protein kinases (human kinome) (Homo sapiens, UniProt Q8IW41), sequence (Q8IW41 whole entry): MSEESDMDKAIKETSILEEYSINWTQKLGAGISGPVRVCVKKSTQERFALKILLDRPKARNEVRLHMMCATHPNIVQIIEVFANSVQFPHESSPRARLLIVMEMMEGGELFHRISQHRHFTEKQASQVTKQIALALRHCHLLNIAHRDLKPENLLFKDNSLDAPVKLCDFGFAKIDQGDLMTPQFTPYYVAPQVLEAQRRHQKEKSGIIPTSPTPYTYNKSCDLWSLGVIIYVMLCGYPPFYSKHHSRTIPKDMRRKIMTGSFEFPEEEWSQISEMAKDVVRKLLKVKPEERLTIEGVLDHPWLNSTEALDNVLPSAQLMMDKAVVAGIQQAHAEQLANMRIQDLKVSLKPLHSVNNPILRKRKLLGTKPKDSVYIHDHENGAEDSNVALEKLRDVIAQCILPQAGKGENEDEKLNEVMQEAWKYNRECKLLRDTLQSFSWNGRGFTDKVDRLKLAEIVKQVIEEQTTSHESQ
# [8] = target: T2, protein kinases (human kinome) (Homo sapiens, UniProt Q9H2K8); details: for logFC: TAOK3 (Q9H2K8); for logFC TAOK3 (Q9H2K8): direction of change down
# T2 sequence (Q9H2K8 1-898): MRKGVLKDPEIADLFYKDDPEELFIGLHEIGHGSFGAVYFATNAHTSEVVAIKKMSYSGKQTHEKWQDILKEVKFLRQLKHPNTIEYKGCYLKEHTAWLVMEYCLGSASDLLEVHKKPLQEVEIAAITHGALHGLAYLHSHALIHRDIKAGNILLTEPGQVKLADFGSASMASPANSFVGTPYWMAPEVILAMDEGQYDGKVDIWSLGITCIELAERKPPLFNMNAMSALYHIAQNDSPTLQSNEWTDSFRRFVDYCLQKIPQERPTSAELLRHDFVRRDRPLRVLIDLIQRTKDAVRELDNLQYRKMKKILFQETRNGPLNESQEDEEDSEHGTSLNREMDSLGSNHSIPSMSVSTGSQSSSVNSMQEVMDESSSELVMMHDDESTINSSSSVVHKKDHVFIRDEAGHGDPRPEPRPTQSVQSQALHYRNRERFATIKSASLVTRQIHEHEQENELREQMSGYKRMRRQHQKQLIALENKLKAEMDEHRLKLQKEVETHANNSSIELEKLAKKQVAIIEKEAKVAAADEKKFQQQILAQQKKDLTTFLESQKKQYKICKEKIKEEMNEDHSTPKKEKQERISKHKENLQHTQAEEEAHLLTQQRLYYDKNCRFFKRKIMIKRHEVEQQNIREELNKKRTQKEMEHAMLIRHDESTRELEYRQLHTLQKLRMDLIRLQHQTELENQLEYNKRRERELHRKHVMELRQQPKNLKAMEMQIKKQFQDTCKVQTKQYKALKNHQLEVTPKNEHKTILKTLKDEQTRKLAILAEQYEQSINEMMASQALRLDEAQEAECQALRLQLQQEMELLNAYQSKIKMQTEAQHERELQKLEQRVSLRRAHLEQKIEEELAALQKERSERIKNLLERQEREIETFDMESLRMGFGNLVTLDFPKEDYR
# [9] = target: protein kinases (human kinome) (Homo sapiens, UniProt Q9UHD2); details: experiment wp146
# protein kinases (human kinome) (Homo sapiens, UniProt Q9UHD2), sequence (Q9UHD2 whole entry): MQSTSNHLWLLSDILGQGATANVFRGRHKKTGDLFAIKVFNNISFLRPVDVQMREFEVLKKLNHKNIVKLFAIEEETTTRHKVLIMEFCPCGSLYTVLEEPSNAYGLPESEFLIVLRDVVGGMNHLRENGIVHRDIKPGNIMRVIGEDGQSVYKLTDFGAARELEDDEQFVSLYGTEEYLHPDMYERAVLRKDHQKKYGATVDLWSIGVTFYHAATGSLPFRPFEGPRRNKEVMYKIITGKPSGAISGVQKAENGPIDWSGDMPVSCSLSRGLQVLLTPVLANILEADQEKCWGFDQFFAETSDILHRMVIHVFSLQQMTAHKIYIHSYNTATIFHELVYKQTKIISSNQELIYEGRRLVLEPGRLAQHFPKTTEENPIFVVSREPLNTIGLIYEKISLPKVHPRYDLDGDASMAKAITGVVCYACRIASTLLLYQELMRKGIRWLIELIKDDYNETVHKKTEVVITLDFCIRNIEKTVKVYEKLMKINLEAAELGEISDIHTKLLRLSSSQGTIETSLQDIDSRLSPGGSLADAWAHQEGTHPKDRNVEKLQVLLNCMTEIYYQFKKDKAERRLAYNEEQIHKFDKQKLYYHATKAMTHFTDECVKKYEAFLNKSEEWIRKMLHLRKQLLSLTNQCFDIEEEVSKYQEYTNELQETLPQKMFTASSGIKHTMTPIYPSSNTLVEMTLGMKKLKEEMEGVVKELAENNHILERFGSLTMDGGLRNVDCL
# protein kinases (human kinome) (Homo sapiens, UniProt Q9BZX2), sequence (Q9BZX2 whole entry): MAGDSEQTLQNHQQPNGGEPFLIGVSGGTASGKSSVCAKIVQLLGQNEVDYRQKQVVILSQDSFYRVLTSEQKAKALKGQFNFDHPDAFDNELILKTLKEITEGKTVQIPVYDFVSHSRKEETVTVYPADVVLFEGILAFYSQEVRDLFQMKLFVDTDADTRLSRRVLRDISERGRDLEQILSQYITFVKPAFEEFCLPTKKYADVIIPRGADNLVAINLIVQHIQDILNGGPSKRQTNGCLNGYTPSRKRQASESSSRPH
smiles,measurement,setting,value
"Cc1ccc(NC(=O)c2cccc(C(F)(F)F)c2)cc1N1Cc2cnc(Nc3ccc(N4CCN(Cc5cn(CCCCCOc6cccc7c6C(=O)N(C6CCC(=O)NC6=O)C7=O)nn5)CC4)nc3)nc2N(C)C1=O (stereo not shown) [DB0646, N-(3-(7-((6-(4-((1-(5-((2-(2,6-Dioxopiperidin-3-yl)-1,3-dioxoisoindolin-4-yl)oxy)pentyl)-1H-1,2,3-triazol-4-yl)methyl)piperazin-1-v)pyridin-3-yl)amino)-1-methyl-2-oxo-1,4-dihydropyrimido[4,5-d]pyrimidin-3(2H)-yl)-4-methylphenyl)-3-(trifluoromethyl)benzamide]",logFC UCK2,[1],−0.3246
same,logFC,[2]; CDK11A (Q9UQ88-1),−0.868
same,logFC of CDK11A (Q9UQ88-1),[2],−0.868
same,logFC DDR2 (Q16832),"[3]; Experiment wp105, direction of change down",−0.4741
same,logFC DDR2,"[3]; protein DDR2 (Q16832), experiment wp105, down",−0.4741
same,logFC MAPK11 (Q15759),[4]; Experiment wp105,−0.3998
same,logFC MAPK11 (Q15759),[4]; Experiment wp114,−0.6209
same,logFC,[4]; experiment wp105,−0.3998
same,logFC,[4]; experiment wp114,−0.6209
Cc1ccc(NC(=O)c2cccc(C(F)(F)F)c2)cc1N1Cc2cnc(Nc3ccc(N4CCN(CCCCCCOc5cccc6c5C(=O)N(C5CCC(=O)NC5=O)C6=O)CC4)nc3)nc2N(C)C1=O (stereo not shown) [DB0663],logFC DGKD,[5],−0.5955
C[C@@H]1C[C@@H](O)c2ncnc(N3CCN(C(=O)[C@H](CNCCCCCCCCCCc4cccc5c4C(=O)N(C4CCC(=O)NC4=O)C5=O)c4ccc(Cl)cc4)CC3)c21 (stereo partly shown) [INY.03.041.01],logFC,[6]; experiment wp118,−2.258
same,logFC,"[6]; experiment wp135, 4 hr",−1.225
same,logFC of AKT1 (P31749),"[6]; Experiment wp135, 4 hr",−1.225
same,logFC of AKT1 (P31749),[6]; experiment wp118,−2.258
"Cc1ncsc1-c1ccc([C@H](C)NC(=O)[C@@H]2C[C@@H](O)CN2C(=O)[C@@H](NC(=O)CCCCCN2CCN(c3ccc(Nc4ncc5scc(-c6cccc(NS(C)(=O)=O)c6)c5n4)cc3)CC2)C(C)(C)C)cc1 [RSS0680, (2S,4R)-1-((S)-3,3-Dimethyl-2-(6-(4-(4-((7-(3-(methylsulfonamido)phenyl)thieno[3,2-d]pyrimidin-2-yl)amino)phenyl)piperazin-1-yl)hexanamido)butanoyl)-4-hydroxy-N—((S)-1-(4-(4-methylthiazol-5yl)phenyl)ethyl)pyrrolidine-2-carboxamide]",logFC MAPKAPK5 (Q8IW41),[7]; direction of change down,−0.3355
same,logFC MAPKAPK5,"[7]; protein MAPKAPK5 (Q8IW41), down",−0.3355
Cc1ccc(C(=O)Nc2ccc(CN3CCN(CCCOCCOCCOCCNC(=O)COc4cccc5c4C(=O)N(C4CCC(=O)NC4=O)C5=O)CC3)c(C(F)(F)F)c2)cc1C#Cc1cnc2cccnn12 (stereo not shown) [SB1.G.187],logFC,[8]; experiment wp103,−0.3727
same,logFC,[8]; experiment wp107,−0.3858
same,logFC TAOK3 (Q9H2K8),[8]; experiment wp103,−0.3727
same,logFC TAOK3 (Q9H2K8),[8]; experiment wp107,−0.3858
Cc1cc(Nc2ncc(Br)c(Nc3cccc(F)c3C(N)=O)n2)ccc1S(=O)(=O)NCCOCCOCCOCCOCCNc1cccc2c1C(=O)N(C1CCC(=O)NC1=O)C2=O (stereo not shown) [TMX.02.174],logFC TBK1 (Q9UHD2),[9]; direction of change down,−0.5951
same,logFC TBK1,"[9]; protein TBK1 (Q9UHD2), down",−0.5951
